Assay results published in patent publication US20250136606A1, “MODULATORS OF TRPML, THEIR COMPOSITIONS AND METHODS OF USE” (Caraway Therapeutics, Inc., priority 2021, published 2025).

Tests used:
Assay type in all cases: cell-based
Conditions in all cases: fluorescent calcium assay
TRPML1 = TRPML1 (Homo sapiens, UniProt Q9GZU1); experiment: Fluorescent TRPML1 assay (Fluo4-AM calcium fluorescence in doxycycline-induced HEK-293 Trex cells)
Outline: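 HEK-293 Trex cells stably carrying human TRPML1 (surface-trafficking mutant) were induced overnight with 0.5 ug/mL doxycycline, loaded with 1 micromolar Fluo4-AM, and suspended in Ringer's with 10 mM calcium. Compounds at 20 micromolar to 6 nanomolar final, half-log steps, triplicate; fluorescence 480/540 nm gave percent activity versus controls and EC50 by non-linear regression.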

TRPML2 = target: T1, TRPML2 (Homo sapiens, UniProt Q8IZK6); experiment: Fluorescent TRPML2 assay (performed as for TRPML1, substituting the TRPML2 subtype)
T1 construct: expressed in transfected cells
T1 sequence (Q8IZK6 1-566): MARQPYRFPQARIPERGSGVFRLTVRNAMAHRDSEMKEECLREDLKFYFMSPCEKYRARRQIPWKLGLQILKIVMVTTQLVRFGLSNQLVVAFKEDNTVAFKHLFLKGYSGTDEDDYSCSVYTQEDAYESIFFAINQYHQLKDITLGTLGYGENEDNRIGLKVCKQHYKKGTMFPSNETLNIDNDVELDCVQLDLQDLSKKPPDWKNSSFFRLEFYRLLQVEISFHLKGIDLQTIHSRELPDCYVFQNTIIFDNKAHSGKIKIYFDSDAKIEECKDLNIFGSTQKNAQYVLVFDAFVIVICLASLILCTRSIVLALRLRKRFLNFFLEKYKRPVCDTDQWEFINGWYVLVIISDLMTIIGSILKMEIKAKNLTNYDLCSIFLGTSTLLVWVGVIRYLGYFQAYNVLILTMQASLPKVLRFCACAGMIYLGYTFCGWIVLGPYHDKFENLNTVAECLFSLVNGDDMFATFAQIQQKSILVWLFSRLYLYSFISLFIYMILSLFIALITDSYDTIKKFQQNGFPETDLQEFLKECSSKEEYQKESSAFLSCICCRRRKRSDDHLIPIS
Outline: (§1)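 Doxycycline-induced (0.5 ug/mL) HEK-293 Trex cells stably expressing surface-directed mutant channel were loaded with 1 micromolar Fluo4-AM, resuspended in Ringer's with 10 mM calcium and added to compound plates. Fluorescence (ex 480, em 540 nm) gave percent activity versus on-plate controls; EC50 by non-linear regression.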

TRPML3 = target: T2, TRPML3 (Homo sapiens, UniProt Q8TDD5); experiment: Fluorescent TRPML3 assay (performed as for TRPML1, substituting the TRPML3 subtype)
T2 construct: expressed in transfected cells
T2 sequence (Q8TDD5 1-553): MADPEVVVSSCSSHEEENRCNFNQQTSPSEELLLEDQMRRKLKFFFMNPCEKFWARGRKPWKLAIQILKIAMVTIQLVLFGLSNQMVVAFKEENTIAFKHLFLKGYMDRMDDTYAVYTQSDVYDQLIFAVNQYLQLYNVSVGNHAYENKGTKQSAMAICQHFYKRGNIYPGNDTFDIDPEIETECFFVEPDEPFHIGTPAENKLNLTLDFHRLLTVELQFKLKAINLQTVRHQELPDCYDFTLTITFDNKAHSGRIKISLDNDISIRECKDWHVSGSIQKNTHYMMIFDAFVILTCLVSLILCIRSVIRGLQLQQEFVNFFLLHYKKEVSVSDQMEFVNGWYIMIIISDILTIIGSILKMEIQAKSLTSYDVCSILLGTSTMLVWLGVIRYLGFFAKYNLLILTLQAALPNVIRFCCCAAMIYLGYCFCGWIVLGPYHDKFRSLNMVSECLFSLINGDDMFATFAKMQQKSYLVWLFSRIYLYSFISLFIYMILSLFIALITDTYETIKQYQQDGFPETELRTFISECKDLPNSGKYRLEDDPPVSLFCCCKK
Outline: as §1

Chain of TRPML1 (Q9GZU1 whole entry L15A/L16A/L577A/L578A, form open): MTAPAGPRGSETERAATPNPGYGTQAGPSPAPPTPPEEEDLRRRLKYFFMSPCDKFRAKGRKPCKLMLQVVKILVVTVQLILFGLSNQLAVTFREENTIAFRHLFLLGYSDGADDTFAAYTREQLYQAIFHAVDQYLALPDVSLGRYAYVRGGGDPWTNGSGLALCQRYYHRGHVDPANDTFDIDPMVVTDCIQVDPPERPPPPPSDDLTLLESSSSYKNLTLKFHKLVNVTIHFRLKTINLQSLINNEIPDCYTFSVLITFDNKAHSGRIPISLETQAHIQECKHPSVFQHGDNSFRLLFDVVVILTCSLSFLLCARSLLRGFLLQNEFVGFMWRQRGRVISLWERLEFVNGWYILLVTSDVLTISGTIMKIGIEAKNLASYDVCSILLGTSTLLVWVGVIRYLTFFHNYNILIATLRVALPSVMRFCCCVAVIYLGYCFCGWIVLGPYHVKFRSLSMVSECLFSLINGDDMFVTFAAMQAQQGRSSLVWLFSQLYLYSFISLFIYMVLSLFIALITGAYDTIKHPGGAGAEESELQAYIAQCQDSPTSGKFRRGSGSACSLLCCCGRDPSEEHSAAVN

Compound | EC50 (TRPML1) | EC50 (TRPML2) | EC50 (TRPML3)
C[C@H]1CN(C(=O)OC(C)(C)C)CCN1c1ncnc2c1c(-c1ccccn1)cn2-c1cc(F)cc(F)c1 [Compound 235, tert-butyl-(S)-4-(7-(3,5-difluorophenyl)-5-(pyridin-2-yl)-7H-pyrrolo[2,3-d]pyrimidin-4-yl)-3-methylpiperazine-1-carboxylate] | 100 to 500 nM | 100 to 500 nM | 100 to 500 nM
C[C@@H]1CN(c2ncnc3c2c(C2CC2)cn3-c2cc(F)cc(Cl)c2)[C@@H](C)CN1C(=O)OC(C)(C)C [Compound 236, tert-butyl (2R,5S)-4-(7-(3-chloro-5-fluorophenyl)-5-cyclopropyl-7H-pyrrolo[2,3-d]pyrimidin-4-yl)-2,5-dimethylpiperazine-1-carboxylate] | < 100 nM | 100 to 500 nM | < 100 nM
C[C@H]1CN(C(=O)OC(C)(C)C)CCN1c1ncnc2c1c(-c1cnccn1)cn2-c1cc(F)cc(F)c1 [Compound 237, tert-butyl-(S)-4-(7-(3,5-difluorophenyl)-5-(pyrazin-2-yl)-7H-pyrrolo[2,3-d]pyrimidin-4-yl)-3-methylpiperazine-1-carboxylate] | 500 to 2000 nM | 500 to 2000 nM | 100 to 500 nM
C[C@@H]1CN(c2ncnc3c2c(-c2ccncc2)cn3-c2cc(F)cc(Cl)c2)CCN1C(=O)OC(C)(C)C [Compound 238, tert-butyl (R)-4-(7-(3-chloro-5-fluorophenyl)-5-(pyridin-4-yl)-7H-pyrrolo[2,3-d]pyrimidin-4-yl)-2-methylpiperazine-1-carboxylate] | < 100 nM | 500 to 2000 nM | 100 to 500 nM
C[C@@H]1CN(c2ncnc3c2c(C2CC2)nn3-c2cc(F)cc(F)c2)CCN1C(=O)OC(C)(C)C [Compound 239, tert-butyl (R)-4-(3-cyclopropyl-1-(3,5-difluorophenyl)-1H-pyrazolo[3,4-d]pyrimidin-4-yl)-2-methylpiperazine-1-carboxylate] | < 100 nM | 500 to 2000 nM | < 100 nM
C[C@H]1CN(c2ncnc3c2c(C2CC2)nn3-c2cc(F)cc(F)c2)CCN1C(=O)OC(C)(C)C [Compound 240, tert-Butyl (S)-4-(3-cyclopropyl-1-(3,5-difluorophenyl)-1H-pyrazolo[3,4-d]pyrimidin-4-yl)-2-methylpiperazine-1-carboxylate] | 100 to 500 nM | 500 to 2000 nM | 100 to 500 nM
C[C@H]1CN(C(=O)OC(C)(C)C)CCN1c1ncnc2c1c(-c1ccncc1)cn2-c1cc(F)cc(F)c1 [Compound 241, tert-butyl-(S)-4-(7-(3,5-difluorophenyl)-5-(pyridin-4-yl)-7H-pyrrolo[2,3-d]pyrimidin-4-yl)-3-methylpiperazine-1-carboxylate] | 100 to 500 nM | 500 to 2000 nM | 100 to 500 nM
Cc1nccnc1-c1cn(-c2cc(F)cc(F)c2)c2ncnc(N3CCN(C(=O)OC(C)(C)C)[C@H](C)C3)c12 [Compound 242, tert-butyl (R)-4-(7-(3,5-difluorophenyl)-5-(3-methylpyrazin-2-yl)-7H-pyrrolo[2,3-d]pyrimidin-4-yl)-2-methylpiperazine-1-carboxylate] | 100 to 500 nM | 100 to 500 nM | 100 to 500 nM
Cc1nccnc1-c1cn(-c2cc(F)cc(F)c2)c2ncnc(N3CCN(C(=O)OC(C)(C)C(F)(F)F)[C@H](C)C3)c12 [Compound 243, 1,1,1-trifluoro-2-methylpropan-2-yl (R)-4-(7-(3,5-difluorophenyl)-5-(3-methylpyrazin-2-yl)-7H-pyrrolo[2,3-d]pyrimidin-4-yl)-2-methylpiperazine-1-carboxylate] | 100 to 500 nM | 500 to 2000 nM | 100 to 500 nM
C[C@@H]1CN(c2ncnc3c2c(N2CCCC2)cn3-c2cc(F)cc(F)c2)CCN1C(=O)OC(C)(C)C [Compound 245, tert-butyl (R)-4-(7-(3,5-difluorophenyl)-5-(pyrrolidin-1-yl)-7H-pyrrolo[2,3-d]pyrimidin-4-yl)-2-methylpiperazine-1-carboxylate] | 100 to 500 nM | 500 to 2000 nM | 100 to 500 nM
Cc1nccnc1-c1cn(-c2cc(F)cc(F)c2)c2ncnc(N3CCN(C(=O)OC(C)(C)C)C[C@@H]3C)c12 [Compound 246, tert-butyl (S)-4-(7-(3,5-difluorophenyl)-5-(3-methylpyrazin-2-yl)-7H-pyrrolo[2,3-d]pyrimidin-4-yl)-3-methylpiperazine-1-carboxylate] | 500 to 2000 nM | 500 to 2000 nM | 100 to 500 nM
Cc1nccnc1-c1cn(-c2cc(F)cc(F)c2)c2ncnc(N3CCN(C(=O)OC(C)(C)C(F)(F)F)C[C@@H]3C)c12 [Compound 247, 1,1,1-trifluoro-2-methylpropan-2-yl (S)-4-(7-(3,5-difluorophenyl)-5-(3-methylpyrazin-2-yl)-7H-pyrrolo[2,3-d]pyrimidin-4-yl)-3-methylpiperazine-1-carboxylate] | 500 to 2000 nM | 500 to 2000 nM | 100 to 500 nM
Cc1nccnc1-c1cn(-c2cc(F)cc(F)c2)c2ncnc(N3CCN(C(=O)OC(C)(C)CF)C[C@@H]3C)c12 [Compound 248, 1-fluoro-2-methylpropan-2-yl (S)-4-(7-(3,5-difluorophenyl)-5-(3-methylpyrazin-2-yl)-7H-pyrrolo[2,3-d]pyrimidin-4-yl)-3-methylpiperazine-1-carboxylate] | 500 to 2000 nM | > 2000 nM | 500 to 2000 nM
Cc1nccnc1-c1cn(-c2cc(F)cc(F)c2)c2ncnc(N3CCN(C(=O)OC(C)C)C[C@@H]3C)c12 [Compound 249, Isopropyl (S)-4-(7-(3,5-difluorophenyl)-5-(3-methylpyrazin-2-yl)-7H-pyrrolo[2,3-d]pyrimidin-4-yl)-3-methylpiperazine-1-carboxylate] | > 2000 nM | > 2000 nM | 500 to 2000 nM
Cc1nccnc1-c1cn(-c2cc(F)cc(F)c2)c2ncnc(N3CCN(C(=O)OC(C)(C)CF)[C@H](C)C3)c12 [Compound 250, 1-fluoro-2-methylpropan-2-yl (R)-4-(7-(3,5-difluorophenyl)-5-(3-methylpyrazin-2-yl)-7H-pyrrolo[2,3-d]pyrimidin-4-yl)-2-methylpiperazine-1-carboxylate] | 500 to 2000 nM | > 2000 nM | 100 to 500 nM
Cc1nccnc1-c1cn(-c2cc(F)cc(F)c2)c2ncnc(N3CCN(C(=O)OC(C)C)[C@H](C)C3)c12 [Compound 251, isopropyl (R)-4-(7-(3,5-difluorophenyl)-5-(3-methylpyrazin-2-yl)-7H-pyrrolo[2,3-d]pyrimidin-4-yl)-2-methylpiperazine-1-carboxylate] | > 2000 nM | > 2000 nM | 500 to 2000 nM
CC(C)OC(=O)N1C[C@H](C)N(c2ncnc3c2c(-c2ccccc2F)cn3-c2cnn(C)c2)C[C@H]1C [Compound 252, isopropyl (2R,5S)-4-(5-(2-fluorophenyl)-7-(1-methyl-1H-pyrazol-4-yl)-7H-pyrrolo[2,3-d]pyrimidin-4-yl)-2,5-dimethylpiperazine-1-carboxylate] | 100 to 500 nM | > 2000 nM | 100 to 500 nM
C[C@H]1CN(C(=O)OC(C)(C)C)CCN1c1ncnc2c1c(N1CCCC1)cn2-c1cc(F)cc(F)c1 [Compound 253, tert-butyl (S)-4-(7-(3,5-difluorophenyl)-5-(pyrrolidin-1-yl)-7H-pyrrolo[2,3-d]pyrimidin-4-yl)-3-methylpiperazine-1-carboxylate] | < 100 nM | 100 to 500 nM | < 100 nM
C[C@@H]1CN(c2ncnc3c2c(-c2ccccc2F)cn3-c2cnn(C)c2)[C@@H](C)CN1C(=O)OCC(F)(F)F [Compound 254, 2,2,2-trifluoroethyl (2R,5S)-4-(5-(2-fluorophenyl)-7-(1-methyl-1H-pyrazol-4-yl)-7H-pyrrolo[2,3-d]pyrimidin-4-yl)-2,5-dimethylpiperazine-1-carboxylate] | 100 to 500 nM | > 2000 nM | 100 to 500 nM
